# Measurements reported in PMC6497007, “Development, Validation of LC-MS/MS Method and Determination of Pharmacokinetic Parameters of the Stroke Neuroprotectant Neurounina-1 in Beagle Dog Plasma After Intravenous Administration” (Frontiers in Pharmacology, 2019).
# Like-named read-outs stand apart in the source and are kept apart here.
# Tests used:
# [1] = ref Molinaro et al., 2013; cited from earlier work
# [2] = tested on: transient middle cerebral artery occlusion (tMCAO); set-up: method as in Molinaro et al., 2013; details: ref Molinaro et al., 2013, cited from earlier work
# [3] = Stability tests in beagle dog plasma (QC samples); assay type: in vitro ADME
# Procedure: To assess stability, QC plasma samples (1.5 and 400.0 ng/mL) were subjected to short-term (6 h) incubation at room temperature; four freeze/thaw (-20°C) cycles and 52 h in the autosampler at room temperature. Subsequently, the neurounina-1 concentrations were measured and compared with freshly prepared samples.
# beagle dogs = test: Tolerability in beagle dogs after intravenous administration; assay type: in vivo, beagle dog; details: single i.v. 0.1, 0.3 and 1 mg/kg
# Procedure: (§1) Beagle dogs (n = 5) of both sexes, aged between 2 and 3 years old, weighing between 10 and 14 kg were provided by Camilo Castelo Branco University, Brazil. The dogs were housed in Domingos Alves Veterinary Hospital in individual rooms and fed with a standard canine food. They had free access to water. The dogs underwent rigorous veterinary control and were all considered healthy based on physical examination and laboratory analysis performed before initiation and after completion of each occasion of the study. At the end of the study, the animals were returned to their habitat. This study was carried out in accordance with the recommendations of the general ethical guidelines established by the Brazilian Society for Laboratory Animal Science (SBCAL). The protocol was approved by the Committee for Ethics in Animal Use – State University of Campinas (CEUA/UNICAMP, protocol n° 3340-1).
# After an overnight (8 h) fasting, a single intravenous dose of 0.1 mg/kg, 0.3 mg/kg, or 1 mg/kg neurounina-1 formulation was administered to beagle dogs, with 7 days washout period between each dose administration. Blood samples (5 mL) from a suitable antecubital vein were collected into heparin-containing tubes before and 0.03, 0.08, 0.17, 0.25, 0.33, 0.5, 1, 2, 3, 4, 6, 8, 12, and 24 h after the administration of each dose. A total of 210 mL of blood was collected during the study. […]
# NCX1 and NCX2 = tested on: NCX1 and NCX2; set-up: method as in Molinaro et al., 2013; details: ref Molinaro et al., 2013; cited from earlier work
# [4] = Pharmacokinetics in plasma after a single intravenous administration to beagle dogs (LC-MS/MS, non-compartmental analysis); assay type: in vivo, beagle dog; details: for C0 / Vd / clearance / k el / half-life: both sexes, beagle, dog, plasma, iv; for C0 / AUC0-inf / AUC0-tlast / AUC%extrap: beagle dog plasma; for k el: read-out: Ke (converted)
# Procedure: Aliquots (0.05 mL) of each plasma sample were added to glass tubes followed by 0.05 mL of IS (ropivacaine 100 ng/mL). The tubes were vortexed for 5 s and 0.1 mL of acetonitrile were added. The samples were vortexed for 40 s, again, and then centrifuged at 2000 ×g for 5 min. The obtained supernatants were transferred to microvials for analysis.
# Neuronina-1 was separated in a 150 mm × 4.6 mm x 5 μm Phenomenex C18Luna reversed phase analytical column (Phenomenex Inc., CA, United States). The temperature of the column was maintained constant at 65°C. The mobile phase used was composed by methanol/acetonitrile/water (50/40/10, v/v/v) + 0.1% of formic acid + 1 M ammonium formate at a flow rate of 1 mL/min (split 1:3). The auto-sampler was maintained at room temperature.
# The mass spectrometer (Quattro Micro – Micromass, Waters, United Kingdom) equipped with an electrospray source in the ESI positive polarity mode (ES+) was configured for multiple reaction monitoring (MRM) to monitor the transitions 365.3 > 83.9 and 275.2 > 126.0, for neurounina-1 and ropivacaine, respectively. […] To optimize all MS parameters, a standard solution of the analyte and IS was infused into the mass spectrometer. The optimized values of ion spray voltage, collision energy, and cone voltage were, respectively 2800 (V), 20 (eV), and 20 (V) for neurounina-1 and 2800 (V), 15 (eV), and 15 (V) for ropivacaine. Data acquisition and analysis were performed using the software Masslynx 4.0 (Waters Corporation, Milford, MA, United States).
# as §1
# After an overnight (8 h) fasting, a single intravenous dose of 0.1 mg/kg, 0.3 mg/kg, or 1 mg/kg neurounina-1 formulation was administered to beagle dogs, with 7 days washout period between each dose administration. Blood samples (5 mL) from a suitable antecubital vein were collected into heparin-containing tubes before and 0.03, 0.08, 0.17, 0.25, 0.33, 0.5, 1, 2, 3, 4, 6, 8, 12, and 24 h after the administration of each dose. A total of 210 mL of blood was collected during the study. The blood samples treated with sodium heparin were centrifuged at approximately 2000 ×g for 10 min at 4°C and the plasma was stored at -20°C until analysis.
# Non-compartmental analysis was used to determine the pharmacokinetic parameters of neurounina-1 after the intravenous administration. The concentration at time zero (C0) was estimated by back-extrapolating from the elimination curve. The area under the plasma concentration vs. time curves from zero to the last detectable concentration (AUC0-tlast) were calculated by applying the linear-log trapezoid rule. Extrapolation of these areas to infinity (AUC0-inf) was done by adding the value Clast/ke to the calculated AUC0-tlast (where Clast = the last detectable concentration). Clearance (CL) was calculated by the formula dose/AUC0-inf. Volume of distribution (Vd) was calculated by the formula CL/ke. The WinNonlin software, version 6.4 (Pharsight Corp, Mountain View, CA, United States) was used. Statistical analysis was performed using GraphPad Prism software, version 3.2 (GraphPad Software, San Diego, California, United States).
# [5] = 0.1 mg/kg, mean, 0.1 mg/kg single i.v., beagle dog, n = 5
# [6] = 0.1 mg/kg, median, 0.1 mg/kg single i.v., beagle dog, n = 5
# [7] = 0.3 mg/kg, mean, 0.3 mg/kg single i.v., beagle dog, n = 5
# [8] = 0.3 mg/kg, median, 0.3 mg/kg single i.v., beagle dog, n = 5
# [9] = 1 mg/kg, mean, 1 mg/kg single i.v., beagle dog, n = 5
# [10] = 1 mg/kg, median, 1 mg/kg single i.v., beagle dog, n = 5
# [11] = mean, 0.1 mg/kg single i.v., n = 5
# [12] = mean, 0.3 mg/kg single i.v., n = 5
# [13] = mean, 1 mg/kg single i.v., n = 5
# [14] = median, 0.1 mg/kg single i.v., n = 5
# [15] = median, 0.3 mg/kg single i.v., n = 5
# [16] = median, 1 mg/kg single i.v., n = 5
smiles,measurement,setting,value
"O=C1CN=C(c2ccccc2)c2cc([N+](=O)[O-])ccc2N1CN1CCCC1 [Neurounina-1, 7-nitro-5-phenyl-1-(pyrrolidin-1-ylmethyl)-1H-benzo[e][1,4]diazepin-2(3H)-one]",lipophilicity index,[1],high lipophilicity index
same,toxicity,[1],low toxicity
same,time after ischemia induction at which the effect was still notable,"[2]; 0.003 to 30 μg/kg intraperitoneally, mouse tMCAO",5 h
same,most effective dosage in an animal model of stroke,[2]; administered 3 h after stroke induction,0.03 µg/kg
same,protection in animal model of stroke,"[2]; dose of 0.003 μg/Kg, compared with 0.03 μg/Kg",less marked
same,"Stability, Accuracy(%)","[3]; Freeze/thaw (4cycles, -20°C), 1.5 ng/mL, beagle dog plasma",92.7%
same,"Stability, Accuracy(%)","[3]; Freeze/thaw (4cycles, -20°C), 400 ng/mL, beagle dog plasma",101.3%
same,"Stability, Accuracy(%)","[3]; Post-processing (52 h) in autosampler, 1.5 ng/mL, processed beagle dog plasma",96.0%
same,"Stability, Accuracy(%)","[3]; Post-processing (52 h) in autosampler, 400 ng/mL, processed beagle dog plasma",101.8%
same,"Stability, Accuracy(%)","[3]; Short-term (6 h) at room temperature, 1.5 ng/mL, beagle dog plasma",94.7%
same,"Stability, Accuracy(%)","[3]; Short-term (6 h) at room temperature, 400 ng/mL, beagle dog plasma",106.5%
same,Degradation in stability tests,"[3]; four freezing and thawing cycles, 6 h at room temperature, 52 h after processing in the self-injector, beagle dog plasma",no significant degradation
same,"tolerability, behavior",beagle dogs,well tolerated
same,half maximal effective concentration (EC50),NCX1 and NCX2,in the picomolar to low nanomolar range
same,C0,"[4]; 0.1 mg/kg, mean, 0.1 mg/kg single i.v., back-extrapolated, n = 5",32.5 ng/mL
same,Vd,[4]; [5],130 L
same,clearance,[4]; [5],771 mL/min
same,k el,[4]; [5],9.72e-05 s⁻¹
same,half-life,"[4]; 0.1 mg/kg, mean, 0.1 mg/kg single i.v., beagle dog, n = 5, read-out: t1/2 (converted)",2.14 h
same,C0,"[4]; 0.1 mg/kg, median, 0.1 mg/kg single i.v., n = 5",30.6 ng/mL
same,Vd,[4]; [6],127 L
same,clearance,[4]; [6],795 mL/min
same,k el,[4]; [6],0.000106 s⁻¹
same,half-life,"[4]; 0.1 mg/kg, median, 0.1 mg/kg single i.v., beagle dog, n = 5, read-out: t1/2 (converted)",1.67 h
same,C0,"[4]; 0.3 mg/kg, mean, 0.3 mg/kg single i.v., back-extrapolated, n = 5",111 ng/mL
same,Vd,[4]; [7],154 L
same,clearance,[4]; [7],793 mL/min
same,k el,[4]; [7],8.33e-05 s⁻¹
same,half-life,"[4]; 0.3 mg/kg, mean, 0.3 mg/kg single i.v., beagle dog, n = 5, read-out: t1/2 (converted)",2.54 h
same,C0,"[4]; 0.3 mg/kg, median, 0.3 mg/kg single i.v., n = 5",100 ng/mL
same,Vd,[4]; [8],103 L
same,clearance,[4]; [8],591 mL/min
same,k el,[4]; [8],8.61e-05 s⁻¹
same,half-life,"[4]; 0.3 mg/kg, median, 0.3 mg/kg single i.v., beagle dog, n = 5, read-out: t1/2 (converted)",2.16 h
same,C0,"[4]; 1 mg/kg, mean, 1 mg/kg single i.v., back-extrapolated, n = 5",223 ng/mL
same,Vd,[4]; [9],211 L
same,clearance,[4]; [9],1150 mL/min
same,k el,[4]; [9],9.17e-05 s⁻¹
same,half-life,"[4]; 1 mg/kg, mean, 1 mg/kg single i.v., beagle dog, n = 5, read-out: t1/2 (converted)",2.04 h
same,C0,"[4]; 1 mg/kg, median, 1 mg/kg single i.v., n = 5",197 ng/mL
same,Vd,[4]; [10],224 L
same,clearance,[4]; [10],1250 mL/min
same,k el,[4]; [10],8.89e-05 s⁻¹
same,half-life,"[4]; 1 mg/kg, median, 1 mg/kg single i.v., beagle dog, n = 5, read-out: t1/2 (converted)",1.94 h
same,half-life,"[4]; beagle dog, overall statement, read-out: half-life (converted)",~2 h
same,AUC0-inf,[4]; [11],30.10 ng^∗h/mL
same,AUC0-tlast,[4]; [11],26.10 ng^∗h/mL
same,t1/2,"[4]; mean, 0.1 mg/kg single i.v., beagle dog, n = 5, 0.1 mg/kg",2.02 h
same,AUC0-inf,[4]; [12],122.42 ng^∗h/mL
same,AUC0-tlast,[4]; [12],115.81 ng^∗h/mL
same,t1/2,"[4]; mean, 0.3 mg/kg single i.v., beagle dog, n = 5, 0.3 mg/kg",2.36 h
same,AUC0-inf,[4]; [13],263.06 ng^∗h/mL
same,AUC0-tlast,[4]; [13],257.28 ng^∗h/mL
same,t1/2,"[4]; mean, 1 mg/kg single i.v., beagle dog, n = 5, 1 mg/kg",2.13 h
same,AUC0-inf,[4]; [14],26.44 ng^∗h/mL
same,AUC0-tlast,[4]; [14],23.00 ng^∗h/mL
same,AUC%extrap,[4]; [14],3.42%
same,AUC0-inf,[4]; [15],133.20 ng^∗h/mL
same,AUC0-tlast,[4]; [15],127.76 ng^∗h/mL
same,AUC%extrap,[4]; [15],4.56%
same,AUC0-inf,[4]; [16],184.06 ng^∗h/mL
same,AUC0-tlast,[4]; [16],179.65 ng^∗h/mL
same,AUC%extrap,[4]; [16],4.55%
same,Dose linearity of pharmacokinetics,"[4]; single i.v. doses up to 1.0 mg/kg, beagle dog",Linear pharmacokinetics
